Test results as given in PubChem BioAssay (NCI).
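Cells were grown in 96-well plates and exposed to each compound for 48 hours at five concentrations; endpoints were interpolated linearly between bracketing concentrations, or set to the highest concentration if not reached. Here, GI50 denotes the concentration required for 50% inhibition of growth. Definition used: TGI = concentration required for complete inhibition of growth.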 *1 amine or outer side, *2 acyl side, *3 side chain or, on linkers, in order; H or OH if unused. Where a SMILES comes first, the peptide text is derived from it. Bridges are numbered along the chain shown (N, C = ends). [ ]: non-standard residue; d: D form. The star is where a group is joined. ξ: configuration not given here. γ4hArg(2R,3R-(OH)2) = N=C(N)NCCC[C@H](N[*:1])[C@@H](O)[C@@H](O)C(=O)[*:2]; Gln(3S,4R-Me2) = C[C@H]([C@H](N)C(=O)O)[C@@H](C)C(N)=O; X43 = CC(C)C[C@H](C)[C@@H](O)[C@@H](C)C(=O)*; X44 = COC(c1ccc(O)cc1)C(N[*:1])C(=O)[*:2]; NMeQ = CN[C@@H](CCC(N)=O)C(=O)O; Thr(3ξ) = CC(O)[C@H](N)C(=O)O; NMeA = CN[C@@H](C)C(=O)O

What was measured:
Assay in all cases: growth of human tumour cells (NCI), 48 h
[1] = system: OVCAR-8 ovarian
[2] = system: KM12 colon
[3] = system: OVCAR-3 ovarian
[4] = system: K-562 leukemia
[5] = system: SK-MEL-5 melanoma
[6] = system: UACC-62 melanoma
[7] = system: EKVX NSCLC
[8] = system: IGROV1 ovarian
[9] = system: SR leukemia
[10] = system: HOP-92 NSCLC
[11] = system: DU-145 prostate
[12] = system: A498 renal
[13] = system: SF-268 CNS
[14] = system: T-47D breast
[15] = system: OVCAR-4 ovarian
[16] = system: SF-539 CNS
[17] = system: U251 CNS
[18] = system: PC-3 prostate
[19] = system: NCI-H226 lung
[20] = system: SNB-19 CNS
[21] = system: MALME-3M melanoma
[22] = system: SF-295 CNS
[23] = system: CCRF-CEM leukemia
[24] = system: SNB-75 CNS
[25] = system: MCF7 breast
[26] = system: HCC-2998 colon
[27] = system: NCI-H23 lung
[28] = system: COLO 205 colon
[29] = system: UO-31 renal
[30] = system: M14 melanoma
[31] = system: SN12C renal
[32] = system: 786-0 renal
[33] = system: NCI-H460 lung
[34] = system: UACC-257 melanoma
[35] = system: OVCAR-5 ovarian
[36] = system: LOX IMVI melanoma
[37] = system: SK-MEL-2 melanoma
[38] = system: HCT-15 colon
[39] = system: ACHN renal
[40] = system: SK-MEL-28 melanoma
[41] = system: SW-620 colon
[42] = system: HOP-62 NSCLC
[43] = system: TK-10 renal
[44] = system: HL-60(TB) leukemia
[45] = system: HS 578T breast
[46] = system: MDA-MB-435
[47] = system: A549 NSCLC
[48] = system: MDA-MB-231 breast
[49] = system: RXF 393 renal
[50] = system: HT29 colon
[51] = system: NCI/ADR-RES ovarian
[52] = system: SK-OV-3 ovarian
[53] = system: MOLT-4 leukemia
[54] = system: CAKI-1 renal
[55] = system: HCT-116 colon
[56] = system: NCI-H522 lung
[57] = system: RPMI-8226 leukemia
[58] = system: BT-549 breast

## COc1ccc2c(c1)c(CC(=O)[Se]C)c(C)n2C(=O)c1ccc(Cl)cc1
[1]
  GI50: > 0.346 µM
  TGI: > 0.733 µM
[2]
  GI50: > 0.577 µM
  TGI: > 1 µM
[3]
  GI50: > 0.367 µM
  TGI: > 0.583 µM
[4]
  GI50: > 0.583 µM
  TGI: > 1 µM
[5]
  GI50: > 0.434 µM
  TGI: > 0.608 µM
[6]
  GI50: > 0.445 µM
  TGI: > 1 µM
[7]
  GI50: > 0.229 µM
  TGI: > 0.459 µM
[8]
  GI50: > 0.199 µM
  TGI: > 0.615 µM
[9]
  GI50: > 0.507 µM
  TGI: > 1 µM
[10]
  GI50: > 0.336 µM
  TGI: > 0.533 µM
[11]
  GI50: > 0.423 µM
  TGI: > 0.807 µM
[12]
  GI50: 0.269 µM
  TGI: > 0.561 µM
[13]
  GI50: > 0.199 µM
  TGI: > 0.53 µM
[14]
  TGI: > 1 µM
[15]
  GI50: > 0.443 µM
  TGI: > 1 µM
[16]
  GI50: > 0.238 µM
  TGI: > 0.526 µM
[17]
  GI50: > 0.326 µM
  TGI: > 0.573 µM
[18]
  GI50: > 0.337 µM
  TGI: > 0.897 µM
[19]
  TGI: > 0.27 µM
[20]
  GI50: > 0.421 µM
  TGI: > 0.752 µM
[21]
  GI50: > 0.346 µM
  TGI: > 0.582 µM
[22]
  GI50: > 0.365 µM
  TGI: > 0.58 µM
[23]
  GI50: > 0.391 µM
  TGI: > 1 µM
[24]
  TGI: > 0.238 µM
[25]
  GI50: > 0.35 µM
  TGI: > 1 µM
[26]
  GI50: > 0.673 µM
  TGI: > 1 µM
[27]
  GI50: > 0.376 µM
  TGI: > 0.894 µM
[28]
  GI50: > 0.608 µM
  TGI: > 1 µM
[29]
  TGI: > 0.523 µM
[30]
  TGI: > 0.34 µM
[31]
  GI50: > 0.49 µM
  TGI: > 1 µM
[32]
  GI50: > 0.197 µM
  TGI: > 0.428 µM
[33]
  GI50: > 0.304 µM
  TGI: > 1 µM
[34]
  GI50: > 0.352 µM
  TGI: > 0.689 µM
[35]
  GI50: > 0.424 µM
  TGI: > 1 µM
[36]
  GI50: > 0.203 µM
  TGI: > 0.528 µM
[37]
  GI50: > 0.436 µM
  TGI: > 0.794 µM
[38]
  GI50: > 0.506 µM
  TGI: > 1 µM
[39]
  GI50: > 0.56 µM
  TGI: > 1 µM
[40]
  GI50: > 0.202 µM
  TGI: > 0.588 µM
[41]
  GI50: > 0.468 µM
  TGI: > 0.854 µM
[42]
  GI50: > 0.306 µM
  TGI: > 0.615 µM
[43]
  GI50: > 0.347 µM
  TGI: > 0.543 µM
[44]
  GI50: > 0.398 µM
  TGI: > 0.779 µM
[45]
  GI50: > 0.297 µM
  TGI: > 0.942 µM
[46]
  GI50: > 0.231 µM
  TGI: > 0.503 µM
[47]
  GI50: > 0.283 µM
  TGI: > 0.603 µM
[48]
  GI50: > 0.383 µM
  TGI: > 0.637 µM
[49]
  GI50: > 0.206 µM
  TGI: > 0.5 µM
[50]
  GI50: > 0.223 µM
  TGI: > 1 µM
[51]
  GI50: > 0.237 µM
  TGI: > 0.695 µM
[52]
  GI50: > 0.658 µM
  TGI: 0.989 µM
[53]
  GI50: > 0.335 µM
  TGI: > 1 µM
[54]
  GI50: > 0.266 µM
  TGI: > 0.515 µM
[55]
  GI50: > 0.204 µM
  TGI: > 0.543 µM
[56]
  GI50: > 0.371 µM
  TGI: > 0.677 µM
[57]
  GI50: > 0.542 µM
  TGI: > 0.942 µM

## O=C(/C=C/Sc1cc(C(F)(F)F)cc(C(F)(F)F)c1)c1ccc(Cl)cc1
[1]
  GI50: 9.9 µM
  TGI: 45.3 µM
[2]
  GI50: 13.5 µM
  TGI: 27.8 µM
[3]
  GI50: 1.48 µM
  TGI: 4.19 µM
[4]
  GI50: 2.92 µM
  TGI: 24.6 µM
[5]
  GI50: 17.4 µM
  TGI: 32.9 µM
[6]
  GI50: 4.58 µM
  TGI: 15.6 µM
[7]
  GI50: 14.3 µM
  TGI: 30.5 µM
[8]
  GI50: 2.38 µM
  TGI: 6.55 µM
[9]
  GI50: 2.02 µM
  TGI: 5.32 µM
[11]
  GI50: 12.3 µM
  TGI: 25.1 µM
[12]
  GI50: 15.9 µM
  TGI: 29.3 µM
[13]
  GI50: 14.4 µM
  TGI: 29.6 µM
[14]
  GI50: 1.82 µM
  TGI: 4.09 µM
[15]
  GI50: 13.5 µM
  TGI: 30.7 µM
[16]
  GI50: 14.4 µM
  TGI: 30.9 µM
[17]
  GI50: 4.65 µM
  TGI: 16.2 µM
[18]
  GI50: 2.42 µM
  TGI: 5.97 µM
[19]
  GI50: 2.49 µM
  TGI: 7.32 µM
[20]
  GI50: 12.8 µM
  TGI: 25.4 µM
[21]
  GI50: 9.13 µM
  TGI: 23.4 µM
[22]
  GI50: 13.6 µM
  TGI: 29.6 µM
[23]
  GI50: 0.271 µM
  TGI: 1.74 µM
[24]
  GI50: 12.8 µM
  TGI: 25.7 µM
[58]
  GI50: 11.5 µM
  TGI: 23.8 µM
[25]
  GI50: 13.6 µM
  TGI: 35.8 µM
[26]
  GI50: 19.2 µM
  TGI: 33.4 µM
[27]
  GI50: 17 µM
  TGI: 31.3 µM
[28]
  GI50: 2.1 µM
  TGI: 6.6 µM
[29]
  GI50: 2.85 µM
  TGI: 6.05 µM
[30]
  GI50: 1.67 µM
  TGI: 3.36 µM
[31]
  GI50: 1.71 µM
  TGI: 3.46 µM
[32]
  GI50: 2.66 µM
  TGI: 9.84 µM
[33]
  GI50: 16.6 µM
  TGI: 36.6 µM
[34]
  GI50: 14.1 µM
  TGI: 27.5 µM
[35]
  GI50: 18.6 µM
  TGI: 33.7 µM
[36]
  GI50: 1.43 µM
  TGI: 2.73 µM
[37]
  GI50: 31.1 µM
  TGI: 63.1 µM
[38]
  GI50: 3.04 µM
  TGI: 11.6 µM
[39]
  GI50: 1.78 µM
  TGI: 3.36 µM
[40]
  GI50: 4.74 µM
  TGI: 17.1 µM
[41]
  GI50: 17 µM
  TGI: 41.3 µM
[42]
  GI50: 18.3 µM
  TGI: 32.7 µM
[43]
  GI50: 22.3 µM
  TGI: 37.8 µM
[44]
  GI50: 2 µM
  TGI: 11.4 µM
[45]
  GI50: 16.5 µM
  TGI: 43.7 µM
[46]
  GI50: 4.22 µM
  TGI: 15.3 µM
[47]
  GI50: 16.1 µM
  TGI: 32.8 µM
[48]
  GI50: 2.51 µM
  TGI: 8.67 µM
[49]
  GI50: 12 µM
  TGI: 25.3 µM
[50]
  GI50: 6.93 µM
  TGI: 23.9 µM
[51]
  GI50: 23.4 µM
  TGI: 46.3 µM
[52]
  GI50: 15.1 µM
  TGI: 31.3 µM
[53]
  GI50: 1.64 µM
  TGI: 9.12 µM
[54]
  GI50: 3.57 µM
  TGI: 9.43 µM
[55]
  GI50: 1.83 µM
  TGI: 4.09 µM
[56]
  GI50: 3.42 µM
  TGI: 12.4 µM
[57]
  GI50: 0.197 µM
  TGI: 1.02 µM

## COC(c1ccc(O)cc1)C1NC(=O)[C@H](CCC(N)=O)N(C)C(=O)[C@H](CC(C)C)NC(=O)[C@@H](CCCN=C(N)N)NC(=O)[C@H](C(C)O)NC(=O)[C@@H](NC(=O)[C@@H](NC(=O)[C@H](O)[C@H](O)[C@H](CCCN=C(N)N)NC(=O)[C@H](C)NC(=O)[C@H](C)[C@H](O)[C@@H](C)CC(C)C)[C@@H](C)[C@@H](C)C(N)=O)[C@@H](C)OC(=O)[C@H](C)N(C)C1=O (stereo partly drawn) (X43-A[γ4hArg(2R,3R-(OH)2)][Gln(3S,4R-Me2)]T[Thr(3ξ)][dR]L[NMeQ][X44][NMeA]; ester 4-C)
[10]
  TGI: 0.614 µM
[19]
  TGI: 0.912 µM
[58]
  TGI: 0.737 µM
[27]
  TGI: 0.201 µM
[34]
  TGI: 0.308 µM
